Reference: paper PMC10324113, “Gut microbiome modulates tacrolimus pharmacokinetics through the transcriptional regulation of ABCB1” (Microbiome, 2023)
Each block holds one compound with its values, some of them ahead of it.

How the values were obtained:
[1] = cited from earlier work
ABCB1 [2] = biological target: T1, ABCB1 (Homo sapiens, UniProt P08183); test: ABCB1 functionality assay: rhodamine 123 intracellular accumulation in HEK293 recombinant cells; type: cell-based; conditions: 5 μM Rh123, 90 min, PBS condition
T1 construct: expressed in transfected cells
T1 sequence (P08183 whole entry): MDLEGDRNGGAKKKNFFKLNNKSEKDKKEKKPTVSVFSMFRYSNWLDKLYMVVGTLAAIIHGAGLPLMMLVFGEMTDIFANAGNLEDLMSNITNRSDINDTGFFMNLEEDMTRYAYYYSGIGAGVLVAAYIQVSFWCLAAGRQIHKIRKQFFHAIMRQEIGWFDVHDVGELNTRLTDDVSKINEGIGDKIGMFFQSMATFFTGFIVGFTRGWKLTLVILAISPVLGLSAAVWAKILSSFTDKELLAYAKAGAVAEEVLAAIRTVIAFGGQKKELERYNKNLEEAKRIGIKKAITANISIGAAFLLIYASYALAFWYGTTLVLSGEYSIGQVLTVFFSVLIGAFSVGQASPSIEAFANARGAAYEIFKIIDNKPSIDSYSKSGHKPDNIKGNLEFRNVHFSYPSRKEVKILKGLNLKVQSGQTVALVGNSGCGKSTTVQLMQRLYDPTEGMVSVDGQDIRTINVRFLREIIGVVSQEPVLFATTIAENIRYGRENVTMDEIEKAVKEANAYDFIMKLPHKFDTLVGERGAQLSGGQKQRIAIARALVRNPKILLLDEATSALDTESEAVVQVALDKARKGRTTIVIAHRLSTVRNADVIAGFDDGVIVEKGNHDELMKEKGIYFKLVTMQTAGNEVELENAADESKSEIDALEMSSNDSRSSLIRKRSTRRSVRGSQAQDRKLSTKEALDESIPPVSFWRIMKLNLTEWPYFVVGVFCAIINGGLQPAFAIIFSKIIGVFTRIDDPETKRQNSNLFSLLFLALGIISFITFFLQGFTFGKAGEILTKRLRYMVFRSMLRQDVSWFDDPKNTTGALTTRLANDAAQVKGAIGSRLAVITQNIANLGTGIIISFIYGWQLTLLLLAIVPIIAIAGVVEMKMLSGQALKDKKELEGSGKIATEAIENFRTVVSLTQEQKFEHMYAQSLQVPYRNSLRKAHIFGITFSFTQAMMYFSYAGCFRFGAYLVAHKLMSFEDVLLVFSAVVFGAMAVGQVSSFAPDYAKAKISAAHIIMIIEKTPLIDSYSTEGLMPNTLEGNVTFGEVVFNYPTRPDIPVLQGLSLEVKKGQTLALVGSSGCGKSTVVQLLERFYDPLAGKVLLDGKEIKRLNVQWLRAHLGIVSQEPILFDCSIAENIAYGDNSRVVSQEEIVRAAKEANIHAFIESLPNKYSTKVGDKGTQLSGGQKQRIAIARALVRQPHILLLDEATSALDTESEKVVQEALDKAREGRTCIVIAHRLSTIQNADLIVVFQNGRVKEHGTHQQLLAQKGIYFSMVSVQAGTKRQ
Method: First, we tested the impact of FW on the intrinsic ABCB1 efflux functionality. The intracellular accumulation of rhodamine 123 (Rh123), a fluorescent-specific substrate of ABCB1 [39, 40], was performed in HEK293 recombinant cells. Rh123 accumulation was compared between control cells (Control plasmid) expressing low basal levels of ABCB1 and stably transfected cells overexpressing ABCB1 (ABCB1 plasmid), pre-exposed or not to FW for 15 min (Fig. 8A).
Briefly, HEK293 cells were transfected with a plasmid encoding for ABCB1 (ABCB1 plasmid) or an empty vector (control plasmid). HEK293 cells feature low endogenous levels of expression of ABCB1, ensuring that all ABCB1 expression originates from the transfection process. […] Finally, the cells were washed with buffer and resuspended before being analysed using a BD FACSVerse flow cytometer (for characterization) or BD FACSAria III (for cell sorting) and the BD FACSuite software (BD Bioscience, USA). […]
One day before the experiment, 9*10^4 cells (HEK293) were plated in poly-L-lysine-coated black 96-well plates in complete medium. […] Finally, the intracellular fluorescence of Rh123 was analysed by a fluorimeter SpectraMax i3x (Molecular Devices, USA); excitation wavelength was set at 485 nm and emission at 530 nm.

[3] = Tacrolimus whole blood pharmacokinetics after oral gavage in mice (HPLC-MS/MS, population PK model); conditions: for AUC: TAC AUC (population PK-derived)
Method: TAC was suspended in a mix of water and propylene glycol (90:10), 3 to 5 days before the first administration and kept at 4 °C. […] TAC was first dissolved in propylene glycol, then the water was added. The suspension was homogenized using an ultrasonic homogenizer 3 times for 15 s (QSonica Q700 sonicator, QSonica LLC., USA). TAC concentration was always checked before the first and after the last gavage to control for the dose. TAC or the vehicle was administered once a day (always at the same period) by oral gavage. A dose of 3 mg of TAC/kg of body weight was administered for 5 days, except in the dose determination study where different escalating doses (from 0.1 to 10 mg/kg of body weight) were tested (4 days of treatment).
It was administered via drinking water and renewed every other day.
Zosuquidar (ZSQ) was suspended in aqueous 0.5% methylcellulose (based on Matsuda et al.). A single dose of 30 mg/kg of body weight was administered 15 min before last TAC administration by oral gavage (based on Kono et al.).
Fresh faeces were collected and quickly frozen on dry ice before storage at − 80 °C until further analysis or use. Whole blood samples were collected from the tail of awake freely moving mice, at various time points (ranging from 1 to 24 h = T0, after last gavage). The blood sampling strategy used to generate the concentration–time curve of TAC blood levels in mice is detailed in the Supporting information. Before necropsy, mice were fasted for minimum 4 h and anesthetized with ketamine-xylazine or isoflurane. Hepatic and intestinal tissues were quickly collected and frozen in liquid nitrogen before storage at − 80 °C until further analysis.
Blood quantification of TAC was performed on a high-performance liquid chromatography-tandem mass spectrometry (HPLC–MS/MS) method, as already described elsewhere and further optimized for the small amounts of blood available in mouse PK studies. Briefly, the Agilent HPLC 1290 Infinity system is coupled to the 6460 Triple Quadrupole instrument. Fifty microlitres of whole blood was pre-treated and vortexed with 50 μl zinc sulfate 0.1 M, and 125 μl internal standard (ascomycin, 5 μg/L) in methanol. Samples were sonicated for 5 min, before 5 min of centrifugation at 13,500 rpm. Forty microlitres of the supernatant was injected into the system. The precolumn used was the 10 × 4 mm 3 μm Mercury Phenomenex, and the analytical column was the 4.6 × 50 mm 1.8 μm Agilent Zorbax Eclipse XDB C18, maintained at 60 °C. The mobile phase of pump 1 contained a mixture of H2O/methanol (40/60%), and pump 2 2 mM NH4^+ acetate, and aqueous 0.5% formic acid/ methanol (5/95%). […] The method is fully validated in terms of analytical performance (limit of quantification: 0.5 ng/ml; imprecision < 5%) and ion suppression effects. The laboratory participates to the TAC International Proficiency Testing Scheme (ASI, London, UK).
All data generated in this project (n = 351 PK data) were used to develop a population PK model of TAC in mice at steady-state with an average number of observations per subject of 3.5. Population PK modeling of TAC blood concentrations was performed with MonolixSuite-2020R1 software (Lixoft, France) using the stochastic approximation expectation–maximization (SAEM) algorithm. Between-subject variability (eta) was described using an exponential model and covariance between random effects was investigated. Three error models (i.e. proportional, additive and combined) to describe the residual error were tested. The influence of mouse treatment on PK parameters was also investigated through its association with the eta of PK parameters. Additional information on the building of the population PK model (e.g. the precise description of number of measurements per time points) is provided in the Supporting Information.

CYP3A = system: CYP3A; parameters: method as in PMID 11172691; conditions: in vitro; cited from earlier work
ABCB1 [4] = system: ABCB1; parameters: method as in PMID 11172691; conditions: cited from earlier work
gut microbiota = test: Faecal microbiota composition by 16S rRNA gene sequencing in TAC-treated mice; type: in vivo
Method: (§1) Genomic DNA was extracted from faeces using a QIAamp DNA Stool Mini Kit (Qiagen, Germany), including a bead-beating step. Absolute quantification of the total bacteria was performed by quantitative polymerase chain reaction (qPCR) using the primers Bacteria Universal P338f ([…]) and P518r ([…]). 16S rRNA gene sequencing and ensuing bioinformatics and biostatistics analyses (including amplicon sequence variants (ASV) identification) were performed as previously described. Full details are provided in the Supporting Information.
To evaluate the potential impact of TAC oral administration on the gut microbiota composition, we compared the faecal bacterial composition of mice treated with TAC (TAC) or with the vehicle (CTL). Faeces were collected at baseline (day 0) and after 2 and 5 days of treatment.
To assess the impact of ATB on the bacterial load, genomic DNA was extracted from faeces using the QIAamp DNA Stool Mini Kit (Qiagen, Germany) according to manufacturer’s instructions, with the addition of a bead-beating step. To assess the impact of TAC on gut microbiota composition, genomic DNA was extracted from faeces following the protocol Q described by Costea et al. This protocol uses a QIAamp DNA Stool Mini Kit (Qiagen, Germany), including a bead-beating step. Treatment with RNAse A was performed (10 mg/ml, Thermo Fisher Scientific, USA). DNA concentration was determined using a NanoDrop 2000 (Thermo Fisher Scientific, USA).
Amplicon sequencing of the microbiome was done at the University of Minnesota Genomics Center. Briefly, the V5-V6 region of the 16S rRNA gene was PCR-enriched using the primer pair V5F_Nextera ([…]) and V6R_Nextera ([…]) in a 25 μl PCR reaction containing 5 μl of template DNA, […], 500 nM of final concentration of primers and 0.025 U/μl of HostStar Taq+ polymerase (Qiagen Germany). PCR-enrichment reactions were conducted as follow, an initial denaturation step at 95°C for 5 min followed by 25 cycles of denaturation (20 s at 98°C), annealing (15 s at 55°C), and elongation (1 min at 72°C), and a final elongation step (5 min at 72°C). Next, the PCR-enriched samples were diluted 1:100 in water for input into library tailing PCR. The PCR reaction was analogous to the one conducted for enrichment except with a KAPA HiFi Hot Start Polymerase concentration of 0.25 U/μl, while the cycling conditions used were as follows: initial denaturation at 95°C for 5 min followed by 10 cycles of denaturation (20 s at 98°C), annealing (15 s at 55°C), and elongation (1 min at 72°C), and a final elongation step (5 min at 72°C). The primers used for tailing are the following: F-indexing primer […][i5][…] and R-indexing primer […][i7][…] GCTCGG, where [i5] and [i7] refer to the index sequence codes used by Illumina. The resulting 10 μl indexing PCR reactions were normalized using a SequalPrep normalization plate according to the manufacturer’s instructions (Life Technologies, USA). 20 μl of each normalized sample was pooled into a trough, and a SpeedVac was used to concentrate the sample pool down to 100 μl. The pool was then cleaned using 1X AMPureXP beads and eluted in 25 μl of nuclease-free water. The final pool was quantitated by QUBIT (Life Technologies, USA) and checked on a Bioanalyzer High-Sensitivity DNA Chip (Agilent Technologies, USA) to ensure correct amplicon size. The final pool was then normalized to 2 nM, denatured with NaOH, diluted to 8 pM in Illumina’s HT1 buffer, spiked with 20% PhiX, and heat denatured at 96°C for 2 minutes immediately prior to loading. A MiSeq 600 cycle v3 kit was used to sequence the pool. Raw sequences can be found in the SRA database (project ID: PRJNA877868).
Subsequent bioinformatics analyses were performed in-house as previously described. Initial quality filtering of the reads was performed with the Illumina Software, yielding an average of 51 929 pass-filter reads per sample. […]

total bacteria = test: Absolute quantification of total faecal bacteria by qPCR; type: in vivo; conditions: CTL and TAC mice, faeces, up to 5 days
Method: as §1
To assess the impact of ATB on the bacterial load, genomic DNA was extracted from faeces using the QIAamp DNA Stool Mini Kit (Qiagen, Germany) according to manufacturer’s instructions, with the addition of a bead-beating step. […] DNA concentration was determined using a NanoDrop 2000 (Thermo Fisher Scientific, USA).
PCR was performed with a QuantStudio3 (Applied Biosystems, USA) using SYBR Green (GoTaq® qPCR mix, Promega, USA) for detection. […] Threshold was manually adjusted to reach the linear range of the log-fluorescent curves and CT values were determined using the QuantStudio software v1.4.3 (Applied Biosystems, USA). Absolute quantification was achieved through the inclusion of a standard curve (performed in duplicate) on each plate generated by diluting DNA from pure culture of L. acidophilus NCFM (five-fold serial dilution). […]

[5] = Stability of the TAC suspension for gavage; type: physicochemical; conditions: suspension in water and propylene glycol (90:10), kept at 4 °C
[6] = mice, oral gavage, steady-state, mono-compartmental population PK model, mean
[7] = 5 days TAC oral vs vehicle-treated mice

SMILES: C=CCC1C=C(C)CC(C)CC(OC)C2OC(O)(C(C)CC2OC)C(O)C(=O)N2CCCCC2C(=O)OC(C(C)=CC2CCC(O)C(OC)C2)C(C)C(O)CC1=O (centres unmarked) [bacteria-derived TAC metabolite]
bacteria-derived TAC metabolite as share of the parent drug ([1]; human, in vivo): ≤ 5 % of the parent drug

intracellular accumulation in ABCB1 overexpressing cells vs control cells (ABCB1 [2]): accumulated significantly less
SMILES: COC(=O)c1ccccc1-c1c2ccc(=N)cc-2oc2cc(N)ccc12 [Rh123, rhodamine 123]

SMILES: O[C@@H](COc1cccc2ncccc12)CN1CCN([C@@H]2c3ccccc3[C@@H]3[C@H](c4ccccc42)C3(F)F)CC1 [ZSQ, Zosuquidar]
change in TAC AUC in comparison to TAC solely group ([3]; mouse, in vivo): significant increase
Ki (CYP3A): ~3800 nM
affinity for CYP3A lower than for ABCB1 (ABCB1 [4]; CYP3A vs ABCB1): more than 60 times
Ki (ABCB1 [4]): ~59 nM

increase in TAC whole blood exposure ([3]; ATB-treated vs control mice, both under ZSQ supplementation): 75%
reduction in TAC whole blood exposure ([3]; mice with lower intestinal microbial load due to antibiotics vs controls): 33%
time of absorption peak after the last administration ([3]; mice, 3 mg/kg oral, steady-state concentration-time curve): 2 h
Ka (absorption rate constant) [3, 6]: 1.20 h⁻¹
V (volume of distribution) [3, 6]: 1.88 L
Cl/F (oral clearance) ([3]; mice, oral gavage, steady-state, mono-compartmental population PK model, mean, n = 351 blood samples in 99 mice): 0.32 L/h
concentration at 2 h ([3]; mouse, whole blood, po, 3 mg/kg): 39.1 ng/mL
AUC ([3]; mouse, whole blood, po, 3 mg/kg, ATB-treated mice (TAC + ATB), 3 mg/kg oral 5 days, steady-state): 131 ng·h/mL
AUC ([3]; mouse, whole blood, po, 3 mg/kg, mice treated with TAC solely, 3 mg/kg oral 5 days, steady-state): 195 ng·h/mL
AUC ([3]; mouse, whole blood, po, TAC + ZSQ + ATB mice, ZSQ 30 mg/kg oral 15 min before last TAC administration): 618 ng·h/mL
AUC ([3]; mouse, whole blood, po, TAC + ZSQ mice, ZSQ 30 mg/kg oral 15 min before last TAC administration): 354 ng·h/mL
stability of the solution validated for [5]: 15 days
SMILES: C=CC[C@@H]1/C=C(\C)C[C@H](C)C[C@H](OC)[C@H]2O[C@@](O)(C(=O)C(=O)N3CCCC[C@H]3C(=O)O[C@H](/C(C)=C/[C@@H]3CC[C@@H](O)[C@H](OC)C3)[C@H](C)[C@@H](O)CC1=O)[C@H](C)C[C@@H]2OC [TAC, tacrolimus]
evenness of the gut microbiota (Simpson's and Heip's evenness indexes) (gut microbiota; [7]): significant reduction
indexes combining richness and evenness (Shannon and Simpson indexes) (gut microbiota; [7]): significantly reduced
richness (Chao1 and Observed ASV indexes) (gut microbiota; [7]): did not affect
relative abundance of Clostridiales incertae sedis XIII (gut microbiota; family level, 5 days TAC): decrease
relative abundance of Lachnospiraceae (gut microbiota; family level, 5 days TAC): decrease
relative abundance of Rikenellaceae (gut microbiota; family level, 5 days TAC): increase
relative abundance of Ruminococcaceae (gut microbiota; family level, 5 days TAC): decrease
relative abundance of Verrucomicrobiaceae (gut microbiota; family level, 5 days TAC): increase
relative abundance of Akkermansia (gut microbiota; genus level, 5 days TAC): increased
relative abundance of Alistipes (gut microbiota; genus level, 5 days TAC): increased
relative abundance of Oscillibacter (gut microbiota; genus level, 5 days TAC): decreased
relative abundance of Ruminococcus 2 (gut microbiota; genus level, 5 days TAC): decreased
variability in the microbiota dataset accounted for by TAC administration (gut microbiota; genus level, after 5 days of treatment, PERMANOVA p < 0.05): 15%
change in total bacterial load over time (total bacteria): did not observe any significant change
parent drug recovered unchanged in the faeces or urine [1]: less than 0.5%
time of absorption peak after drug intake ([1]; human population): around 2 h
time to steady-state (5 times the half-life) ([1]; human): ~ 60 h
